The values below come from patent US12492184B2, “Heteroaryl compounds, preparation methods and uses thereof” (InventisBio Co., Ltd., priority 2020, dated 2025).

In general, IC50 refers to the midpoint of a concentration-inhibition curve.

Bounds are passed on as bounds.

In this assay the test system is HEK-Blue IL23 Reporter. Kind of assay: HEK-Blue IL-23 STAT3 Reporter Assay. It is filed as cell-based, human. As to conditions: SEAP read with QUANTI-Blue at OD655. Here is the method: HEK-Blue IL23 cells (InvivoGen catalog #HKB-IL23) are designed for the detection of bioactive IL-23 by monitoring the activation of the STAT3 pathway. They were generated by stably introducing the genes for the human IL-23 receptor, STAT3, and the SEAP (secreted embryonic alkaline phosphatase) reporter gene into human HEK293 cell line.
Briefly, around 50,000 cells in DMEM medium supplemented with 10% heat inactivated FBS (˜180 ul) were seeded into each well and incubate for 48 hours at 37° C. with 5% CO2 in air. On day 3, one microliter of compound and 20 ul IL-23 were transferred to the assay plate respectively. The plate was left in the 37° C. incubator overnight. Two microliter of cell supernatant was transferred to a 384-well plate, and 18 ul of resuspended QUANTI-Blue solution was added to each well. SLAP levels were determined using Tecan Spark at OD655.
Cells with no IL23 added were used as Low control. Cells stimulated with IL23 were used as High control. Inhibition rate was calculated with the formula of % inhibition=100*(High control−Treated Well)/(High Control−Low control). IL-23 reporter assay inhibition IC50 was calculated with the equation of Y=Bottom+(Top-Bottom)/(1+10^((Log IC50−X)*HillSlope)).

Where [1] appears, read: Homo sapiens, HEK-Blue IL-23, HEK-Blue IL23 cells stimulated with IL-23 overnight.
Where [2] appears, read: HEK-Blue IL23 cells stimulated with IL-23 overnight.

Regarding `[2H]C([2H])([2H])NC(=O)c1nnc(NC(=O)[C@H]2CC23CC3)cc1Nc1ncc(OC[C@H](C)OC)cc1S(C)(=O)=O` [Compound 112], under setting [1], the IC50 came to 2.7 nM.

In turn, `[2H]C([2H])([2H])NC(=O)c1nnc(NC(=O)C23CC(C2)C3)cc1Nc1ncc(OC)cc1S(C)(=O)=O` [Compound 16] displayed an IC50 under setting [1] of 182 nM. Under setting [2], `[2H]C([2H])([2H])NC(=O)c1nnc(NC(=O)[C@H]2CC23CC3)cc1Nc1nccc2c1S(C)(=O)=NC2` (stereo partly drawn) [Compound 129] displayed a half-inhibitory concentration (IC50) of 0.4 nM.

For the molecule `[2H]C([2H])([2H])NC(=O)c1nnc(NC(=O)OC)cc1Nc1ncccc1S(C)(=O)=O` [Compound 24], inhibition under setting [1] was half-maximal at 25.4 nM (IC50). Turning to `[2H]C([2H])([2H])NC(=O)c1nnc(NC(=O)C2CC23CC3)cc1Nc1ncc(OC)cc1S(C)(=O)=O` (stereo not drawn) [Compound 1], the IC50 under setting [1] is 3.5 nM. On the same count and under the same terms, for `[2H]C([2H])([2H])NC(=O)c1nnc(NC(=O)C2CC2)cc1Nc1ncc(OC(F)F)cc1S(C)(=O)=O` (single isomer, unassigned) [Compound 60] the value was 1.7 nM; for `[2H]C([2H])([2H])NC(=O)c1nnc(NC(=O)[C@H]2CC23CC3)cc1Nc1nc(C)c(F)cc1S(C)(=O)=O` [Compound 125], 7.3 nM; for `[2H]C([2H])([2H])NC(=O)c1nnc(NC(=O)[C@H]2CC23CC3)cc1Nc1ncc(C(F)F)cc1S(C)(=O)=O` [Compound 105], 6.7 nM.

On to `[2H]C([2H])([2H])NC(=O)c1nnc(NC(=O)[C@H]2CC23CC3)cc1Nc1nccc(OC)c1S(C)(=O)=O` [Compound 34], for which the IC50 under setting [1] amounted to 548 nM. For the molecule `[2H]C([2H])([2H])NC(=O)c1nnc(NC(=O)C2CC23CC3)nc1Nc1ccccc1S(C)(=O)=O` (stereo not drawn) [Compound 11], under setting [1], 121 nM corresponded to half-maximal inhibition (IC50). Regarding `[2H]C([2H])([2H])NC(=O)c1nnc(NC(=O)[C@H]2CC23CC3)cc1Nc1ncc(OC(F)F)cc1S(C)(=O)=O` [Compound 106], the 50% inhibitory concentration (IC50) under setting [1] was found to be 3.6 nM.

As for `[2H]C([2H])([2H])NC(=O)c1nnc(NC(=O)C2CCCC2)cc1Nc1nccc2c1S(C)(=O)=NC2` (stereo not drawn) [Compound 91], the IC50 under setting [2] was at least 1000 nM. As to `[2H]C([2H])([2H])NC(=O)c1nnc(NC(=O)C2CC2)cc1Nc1ncc(OC(C)C)cc1S(C)(=O)=O` [Compound 64], the IC50 under setting [1] worked out at 0.6 nM.

The molecule `[2H]C([2H])([2H])NC(=O)c1nnc(NC(=O)C2CC23CC3)cc1Nc1nccc(CO)c1S(C)(=O)=O` (stereo not drawn) [Compound 6] had an IC50 under setting [1] of 18.8 nM. This IC50 is about 31-fold higher than that of the molecule before. On the same count and under the same terms, for `[2H]C([2H])([2H])NC(=O)c1nnc(NC(=O)C2CC2)cc1Nc1ncc(OC[C@H](C)OC)cc1S(C)(=O)=O` [Compound 67] the value was 1 nM; for `[2H]C([2H])([2H])NC(=O)c1nnc(NC(=O)[C@H]2CC23CC3)cc1Nc1ccncc1S(C)(=O)=O` [Compound 13], 346 nM; for `[2H]C([2H])([2H])NC(=O)c1nnc(NC(=O)[C@H]2CC23CC3)cc1Nc1ncc(O[C@@H](C)COC)cc1S(C)(=O)=O` [Compound 114], 1 nM. Under setting [2], `[2H]C([2H])([2H])NC(=O)c1nnc(NC(=O)C2CC2)cc1Nc1nccc2c1S(C)(=O)=NC2` (stereo not drawn) [Compound 57] gave an IC50 of 51.7 nM. This lies in the double-digit nanomolar range. Under setting [1], `[2H]C([2H])([2H])NC(=O)c1nnc(NC(=O)[C@H]2CC23CC3)cc1Nc1ncc(N2CC(F)C2)cc1S(C)(=O)=O` [Compound 128] came in with an IC50 of 1 nM. This counts as single-digit nanomolar.

As for `[2H]C([2H])([2H])NC(=O)c1nnc(NC(=O)C2CC2)cc1Nc1ncc(OCCOC)cc1S(C)(=O)=O` (single isomer, unassigned) [Compound 59], the half-inhibitory concentration (IC50) under setting [1] came to 0.4 nM. This IC50 is about 2.5-fold lower than that of the molecule before. Turning to `[2H]C([2H])([2H])NC(=O)c1nnc(NC(=O)[C@H]2CC23CC3)cc1Nc1ncc(OC2COC2)cc1S(C)(=O)=O` [Compound 110], under setting [1], 2.7 nM corresponded to half-maximal inhibition (IC50). Compared with the last molecule, the IC50 is about 6.8-fold higher. Under setting [1], `[2H]C([2H])([2H])NC(=O)c1nnc(NC(=O)[C@H]2CC23CC3)cc1Nc1ncc(OCCN(C)C)cc1S(C)(=O)=O` [Compound 108] yielded an IC50 of 19.5 nM. On the same count and under the same terms, to `[2H]C([2H])([2H])NC(=O)c1nnc(NC(=O)C2CC2)cc1Nc1ncc(N2CCOC[C@H]2C)cc1S(C)(=O)=O` [Compound 65] belongs 0.5 nM; to `[2H]C([2H])([2H])NC(=O)c1cnc(NC(=O)C2CC2)cc1Nc1ncc(Cl)cc1S(C)(=O)=O` [Compound 80], 1.5 nM; to `[2H]C([2H])([2H])NC(=O)c1nnc(NC(=O)[C@H]2CC23CC3)cc1Nc1nc2c(cc1S(C)(=O)=O)CN(C(=O)OCc1ccccc1)CC2` [Compound 39], 3.2 nM. With `[2H]C([2H])([2H])NC(=O)c1nnc(NC(=O)[C@H]2[C@@H]3COC[C@@H]32)cc1Nc1ncccc1S(C)(=O)=O` [Compound 38], the IC50 under setting [1] is 15.3 nM.

Take `[2H]C([2H])([2H])NC(=O)c1nnc(NC(=O)[C@H]2CC23CC3)cc1Nc1ncccc1S1(=O)=NCCC1` (single isomer, unassigned) [Compound 94]: under setting [2], half-maximal inhibition (IC50) was put at 137 nM. Molecule `[2H]C([2H])([2H])NC(=O)c1nnc(NC(=O)[C@H]2CC23CC3)cc1Nc1ncc(C(C)(C)O)cc1S(C)(=O)=O` [Compound 120] came in with an IC50 under setting [1] of 14.7 nM. In other words, the double-digit nanomolar range. In the case of `[2H]C([2H])([2H])NC(=O)c1nnc(NC(=O)C2(F)CC2)cc1Nc1ncc(OC)cc1S(C)(=O)=O` [Compound 35], the concentration for half-maximal inhibition (IC50) under setting [1] is 11 nM. Under setting [1], `[2H]C([2H])([2H])NC(=O)c1nnc(NC(=O)C2CC2)cc1Nc1ncc(O[C@@H](C)COC)cc1S(C)(=O)=O` [Compound 69] yielded an IC50 of 0.2 nM. As for `[2H]C([2H])([2H])NC(=O)c1nnc(NC(=O)NC2CC2)cc1Nc1ncc(OC)cc1S(C)(=O)=O` [Compound 51], the IC50 under setting [1] was determined as 6.2 nM. `[2H]C([2H])([2H])NC(=O)c1nnc(NC(=O)[C@H]2CC23CC3)cc1Nc1ncc(OC(C)C)cc1S(C)(=O)=O` [Compound 43]: the IC50 under setting [1] was 0.34 nM. For the molecule `[2H]C([2H])([2H])NC(=O)c1nnc(NC(=O)[C@H]2CC23CC3)cc1Nc1cc(Cl)ccc1S(C)(=O)=O` [Compound 10], the half-maximal inhibitory concentration (IC50) under setting [1] came out at 1820 nM.

Regarding `[2H]C([2H])([2H])NC(=O)c1nnc(NC(=O)C2CC2)cc1Nc1ncc(C(C)(C)O)cc1S(C)(=O)=O` [Compound 131], under setting [1], half-maximal inhibition (IC50) required 9 nM. On the same count and under the same terms, for `[2H]C([2H])([2H])NC(=O)c1nnc(NC(=O)[C@H]2C[C@H](NC)C2)cc1Nc1ncc(C2CC2)cc1S(C)(=O)=O` [Compound 87] the value was 19.9 nM; for `[2H]C([2H])([2H])NC(=O)c1nnc(NC(=O)C2CC2)cc1Nc1nc(C)c(F)cc1S(C)(=O)=O` [Compound 72], 1.6 nM.
